Measurements taken from ChEMBL document CHEMBL5532698, “2,3-Dihydroquinazolin-4(1H)-ones and quinazolin-4(3H)-ones as broad-spectrum cytotoxic agents and their impact on tubulin polymerisation” (RSC Med Chem, 2024).

Experiments:
[1] = Antiproliferative activity against human SJG2 cells assessed as cell growth inhibition at 25 uM incubated for 72 hrs by MTT assay relative to control; assay type: functional; conditions: SJ-G2
[2] = test system: NCI-H460; test: Antiproliferative activity against human NCI-H460 cells assessed as cell growth inhibition incubated for 72 hrs by MTT assay; assay type: functional
[3] = test system: HT-29; test: Antiproliferative activity against human HT-29 cells assessed as cell growth inhibition incubated for 72 hrs by MTT assay; assay type: functional
[4] = test system: A2780; test: Antiproliferative activity against human A2780 cells assessed as cell growth inhibition incubated for 72 hrs by MTT assay; assay type: functional
[5] = Cytotoxicity against human MCF-10A cells assessed as cell growth inhibition at 25 uM incubated for 72 hrs by MTT assay relative to control; assay type: toxicity, cell-based
[6] = test system: DU-145; test: Antiproliferative activity against human DU-145 cells assessed as cell growth inhibition incubated for 72 hrs by MTT assay; assay type: functional
[7] = Cytotoxicity against human MCF-10A cells assessed as cell growth inhibition incubated for 72 hrs by MTT assay; assay type: toxicity, cell-based
[8] = test system: HT-29; test: Antiproliferative activity against human HT-29 cells assessed as cell growth inhibition at 25 uM incubated for 72 hrs by MTT assay relative to control; assay type: functional
[9] = test system: A2780; test: Antiproliferative activity against human A2780 cells assessed as cell growth inhibition at 25 uM incubated for 72 hrs by MTT assay relative to control; assay type: functional
[10] = test system: BE(2)-C; test: Antiproliferative activity against human BE2C cells assessed as cell growth inhibition at 25 uM incubated for 72 hrs by MTT assay relative to control; assay type: functional
[11] = test system: U-87 MG; test: Antiproliferative activity against human U87 cells assessed as cell growth inhibition incubated for 72 hrs by MTT assay; assay type: functional, U-87MG ATCC
[12] = test system: MCF7; test: Antiproliferative activity against human MCF7 cells assessed as cell growth inhibition incubated for 72 hrs by MTT assay; assay type: functional
[13] = test system: A-431; test: Antiproliferative activity against human A-431 cells assessed as cell growth inhibition at 25 uM incubated for 72 hrs by MTT assay relative to control; assay type: functional
[14] = test system: MIA PaCa-2; test: Antiproliferative activity against human MIA PaCa-2 cells assessed as cell growth inhibition incubated for 72 hrs by MTT assay; assay type: functional
[15] = test system: DU-145; test: Antiproliferative activity against human DU-145 cells assessed as cell growth inhibition at 25 uM incubated for 72 hrs by MTT assay relative to control; assay type: functional
[16] = test system: BE(2)-C; test: Antiproliferative activity against human BE2C cells assessed as cell growth inhibition incubated for 72 hrs by MTT assay; assay type: functional
[17] = Antiproliferative activity against human SJG2 cells assessed as cell growth inhibition incubated for 72 hrs by MTT assay; assay type: functional; conditions: SJ-G2
[18] = test system: MCF7; test: Antiproliferative activity against human MCF7 cells assessed as cell growth inhibition at 25 uM incubated for 72 hrs by MTT assay relative to control; assay type: functional
[19] = test system: U-87 MG; test: Antiproliferative activity against human U87 cells assessed as cell growth inhibition at 25 uM incubated for 72 hrs by MTT assay relative to control; assay type: functional, U-87MG ATCC
[20] = test system: MIA PaCa-2; test: Antiproliferative activity against human MIA PaCa-2 cells assessed as cell growth inhibition at 25 uM incubated for 72 hrs by MTT assay relative to control; assay type: functional
[21] = test system: A-431; test: Antiproliferative activity against human A-431 cells assessed as cell growth inhibition incubated for 72 hrs by MTT assay; assay type: functional
[22] = test system: NCI-H460; test: Antiproliferative activity against human NCI-H460 cells assessed as cell growth inhibition at 25 uM incubated for 72 hrs by MTT assay relative to control; assay type: functional

| Structure (SMILES) | GI50 [2] [µM] | GI50 [3] [µM] | GI50 [4] [µM] | GI50 [6] [µM] | GI50 [11] [µM] | GI50 [12] [µM] | GI50 [14] [µM] | inhibition at 25 µM [1] [%] | inhibition at 72 h, 25 µM [5] [%] | GI50 at 72 h [7] [µM] | inhibition at 25 µM [8] [%] | inhibition at 25 µM [9] [%] | inhibition at 25 µM [10] [%] | inhibition at 25 µM [13] [%] | inhibition at 25 µM [15] [%] | GI50 [16] [µM] | GI50 [17] [µM] | inhibition at 25 µM [18] [%] | inhibition at 25 µM [19] [%] | inhibition at 25 µM [20] [%] | also measured |
| --- | --- | --- | --- | --- | --- | --- | --- | --- | --- | --- | --- | --- | --- | --- | --- | --- | --- | --- | --- | --- | --- |
| O=C1NC(c2cccc(O)c2)Nc2ccccc21 (configuration not stated) | 14 | 6.3 | 3 | 16 | 19 | 13 | 15 | > 100 | 92 | 14 | > 100 | 95 | 97 | > 100 | 72 | 6.4 | 12 | 66 | 65 | 86 | GI50 [21]: 3.7 µM; inhibition at 25 µM [22]: 94% |
| O=c1[nH]c(/C=C/c2ccc(O)cc2)nc2ccccc12 | 0.37 | 0.35 | 0.3 | 0.35 | 0.48 | 0.22 | 0.34 | > 100 | > 100 | 0.38 | > 100 | > 100 | > 100 | > 100 | > 100 | 0.25 | 0.29 | > 100 | > 100 | > 100 | GI50 [21]: 0.28 µM; inhibition at 25 µM [22]: > 100% |
| O=C1NC(c2ccc(-c3ccccc3)cc2)Nc2ccccc21 (configuration not stated) | 2.8 | 2.3 | 3.8 | 2.3 | 2.2 | 1.6 | 2.3 | > 100 | 98 | 2.3 | > 100 | > 100 | 92 | > 100 | > 100 | 2 | 2.6 | > 100 | > 100 | > 100 | GI50 [21]: 2.4 µM; inhibition at 25 µM [22]: > 100% |

Second part, led by results:

| GI50 [2] [µM] | GI50 [3] [µM] | GI50 [4] [µM] | GI50 [6] [µM] | GI50 [11] [µM] | GI50 [12] [µM] | GI50 [14] [µM] | Structure (SMILES) | inhibition at 25 µM [1] [%] | inhibition at 72 h, 25 µM [5] [%] | GI50 at 72 h [7] [µM] | inhibition at 25 µM [8] [%] | inhibition at 25 µM [9] [%] | inhibition at 25 µM [10] [%] | inhibition at 25 µM [13] [%] | inhibition at 25 µM [15] [%] | GI50 [16] [µM] | GI50 [17] [µM] | inhibition at 25 µM [18] [%] | inhibition at 25 µM [19] [%] | inhibition at 25 µM [20] [%] | also measured |
| --- | --- | --- | --- | --- | --- | --- | --- | --- | --- | --- | --- | --- | --- | --- | --- | --- | --- | --- | --- | --- | --- |
| 24 | 17 | 18 | 45 | > 50 | 6.7 | 20 | O=C1NC(c2cccc([N+](=O)[O-])c2)Nc2ccccc21 (configuration not stated) | 61 | 54 | 21 | 78 | 69 | 58 | 67 | 33 | 19 | 22 | > 100 | 20 | 56 | GI50 [21]: 20 µM; inhibition at 25 µM [22]: 59% |
| 3.1 | 2.6 | 2.9 | 4.8 | 4.1 | 3.3 | 3.5 | O=C1NC(c2cc3ccccc3o2)Nc2ccccc21 (configuration not stated) | ≥ 71 | 76 | 3.9 | ≥ 92 | ≥ 57 | 66 | ≥ 75 | ≥ 28 | 3.1 | 3 | 63 | 47 | 76 | GI50 [21]: 2.7 µM; inhibition at 25 µM [22]: 77% |
| 3.2 | 2.9 | 2.9 | 3 | 3.2 | 5.6 | 4.4 | O=C1NC(c2cccc(C(F)(F)F)c2)Nc2ccccc21 (configuration not stated) | > 100 | > 100 | 3.1 | > 100 | 100 | > 100 | > 100 | > 100 | 3.1 | 3.3 | 83 | > 100 | 95 | GI50 [21]: 2.7 µM; inhibition at 25 µM [22]: 100% |
